Values of other authors, collected in US10024828B2, “Adsorbent and analysis method using same” (Hitachi High-Technologies Corporation, priority 2013, dated 2018).

settings: source not stated (calculated or measured value)

Row | SMILES | log P (octanol-water partition coefficient)
1 | O=c1[nH]cc(F)c(=O)[nH]1 [5-fluorouracil] | −0.57
2 | Nc1ccn([C@@H]2O[C@H](CO)[C@@H](O)C2(F)F)c(=O)n1 [gemcitabine] | 0.14
3 | CN(Cc1cnc2nc(N)nc(N)c2n1)c1ccc(C(=O)N[C@@H](CCC(=O)O)C(=O)O)cc1 [methotrexate] | −0.91
